In patent US4242354A, “2-(2-Thenolythio)-propionylglycine: method for its preparation and pharmaceutical formulations containing said compound” (Mediolanum Farmaceutici S.r.L., priority 1978, dated 1980):

Legend:
elderly patients = format: in vivo, man
Protocol: The drug was assessed, with respect to its mucolytic action, on thirty elderly patients ([…], maximal 87, mean age 72). […] The improvement was assessed on the basis of the following parameters:
decrease of the daily quantity of sputum;
decrease of the viscosity of the sputum;
increase of the Tiffeneau's index;
improved value of the erythrocyte sedimentation rate.
A group of twenty patients, in the same mean age, was given for control purposes a known drug such as N-acetylcysteine.

[1] = tested on: histamine-induced bronchial spasm; test: Bronchial spasm due to histamine aerosol in the guinea-pig; format: in vivo, spotted guinea-pigs, male, Morini strain; design: key to time of resistance to the spasm, significance vs. controls (S): h.s.: highly significant; conditions: 50 mg/kg; for time of resistance to the spasm, significance vs. controls (S): one hour; for time of resistance to the spasm (E, mean ± standard error): one hour after treatment, control 114.1 ± 5.4
Protocol: Thirty spotted guinea-pigs, male, Morini strain, 400-500 g bodyweight, were used for the investigation, subdivided into 5 lots, each consisting of 6 animals. The animals were singly placed in a tightly sealed plexiglas cage into which a 0.1 percent aqueous solution of histamine hydrochloride was aerosolized. The time of resistance to the spasm was calculated from the moment of introduction into the cage up to the time of the appearance of the dyspnea crisis.
Group 1: controls with no treatment
In any case, the dose was 50 mg/kg.

[2] = Stability test: physical properties and weight variations on heating; format: physicochemical
Protocol: (§1) The stability tests were carried out according to the Rogers' nonisothermic method suitably integrated by the evaluation of physical data, melting point, weight variation, and spectrophotometric assay. For each single compound, the tests were performed on a series of samples, with the weight of 100 milligrams, added for the wet tests with 1 ml of distilled water. […] The sample were kept in a thermostat at increasing temperatures, i.e. from 25° to 80° C. […] The temperature, programmed according to the Rogers' formula, resulted to be 40° C. at the end of the first hour, 50° C. at the end of the second hour, 57° C. at the end of the third hour, 63° C. at the end of the fourth hour, 69° C. at the end of the fifth hour, 73° C. at the end of the sixth hour, 77° C. at the end of the seventh hour and, as already specified, 80° C. at the end of the eighth hour.
Still in Table 5, the sample from 1 to 5 refer, for each of the two compounds, to the dry substance while the samples from 6 to 10 refer to the solution or to the aqueous suspension obtained as above specified.
(§2) In the case of the wet-treated samples, the final weight was only established on the samples No. 10 brought to dryness at 60° C. under vacuum after an 8-hour heating.

[3] = Stability test: melting point before and after heating; format: physicochemical
Protocol: as §1
The melting point was established in a capillary tube, under identical conditions, on the samples No. 5 after heating for 8 hours in the previously specified conditions, and on the samples No. 10 after heating and evaporation to dryness as previously specified.

bromobenzene poisoning = test: Protective activity in the bromobenzene poisoning; format: in vivo, male rats (Sprague-Dawley)
Protocol: Fifty male rats (Sprague-Dawley, 180-200 g bodyweight) were used for the investigation, subdivided into 5 groups, each consisting of 10 animals, given orally the following compounds
(1) 5 percent gum arabic in tap water
(2) 5 percent gum arabic in tap water
(3) 2-(2-thenoylthio)-propionylglycine--200 mg/kg
(4) 2-(2-thenoylthio)-propionylglycine--300 mg/kg
Seven days later, the animals of the groups 2-3-4-[…] were given bromobenzene subcutaneously (150 mg/rat) while the remaining group (control) was given an equivalent volume of saline. Still seven days later, 5 of the animals of each group were given Nembutal (25 mg/kg/intraperitoneally), and the sleeping time was calculated.
The remaining 5 animals of each group were given bromophthalein at the dose of 50 mg intravenously; thirty minutes later, the animals were sacrificed and both the present bromophthalein and SGPT (serum glutamic pyruvic transaminase) were established in the blood.

[4] = tested on: bronchopneumopathies of the pediatric age; test: Clinical trials in pediatry, mucolytic efficacy in bronchopneumopathies; format: in vivo, man; conditions: decrease from 292.4±92.1 g/Hg, pediatric patients
mercuric chloride = test: In vivo protective action against mercurial compounds; design: species or system male mice (Swiss strain); conditions: mercuric chloride 20 mg/kg ip, mice, 24 hours
Protocol: Forty male mice (Swiss strain, 22 grams mean bodyweight) were used for the investigation, subdivided into 4 groups treated as follows:
(1) mercuric chloride, 20 mg/kg/intraperitoneally;
(4) mercuric chloride 20 mg/kg/intraperitoneally+2-thiopropionylglycine 300 mg/kg/intraperitoneally.
Deaths occurred were recorded hourly in the first 5 hours, and thereafter after 24 hours.

physchem = test: physchem
Protocol: as §1, §2

[5] = sample 1, dry, 1 hour 30 minutes
[6] = sample 3, dry, 5 hours 15 minutes
[7] = sample 10, wet, 8 hours, brought to dryness

With `CC(SC(=O)c1cccs1)C(=O)NCC(=O)O` (stereo not shown) [compound (I), 2-(2-thenoylthio)-propionylglycine] the “rapidity of action vs N-acetylcysteine” value (elderly patients; elderly patients) was “markedly better in terms of rapidity of action”, the “fit of cough on aerosol administration” value (elderly patients; in vivo) was “no fit of cough was observed” and the “patients with a marked improvement” value (elderly patients; of thirty elderly patients, two suppositories daily, each 0.36 grams, six days) was “Twenty-six”. For the same molecule, the bronchial-spasm relieving action ([1]; all the assessed routes) was “remarkable bronchial-spasm relieving action”, the “time of resistance to the spasm, significance vs. controls (S)” value (shortened to “time … significance vs. controls (S)”) ([1]; group 2, orally) was “h.s” and the “time of resistance to the spasm (E, mean ± standard error)” value (shortened to “time … (E, mean ± standard error)”) ([1]; group 2, orally, before treatment 116.00 ± 8.84) was 184.7 ± 14.2 s. For the same molecule, the “time … significance vs. controls (S)” value ([1]; group 3, aerosol) was “h.s”, the “time … (E, mean ± standard error)” value ([1]; group 3, aerosol, before treatment 113.00 ± 5.62) was 170.3 ± 10.9 s and the “time … significance vs. controls (S)” value ([1]; group 4, intraperitoneally) was “h.s”. For the same molecule, the “time … (E, mean ± standard error)” value ([1]; group 4, intraperitoneally, before treatment 112.16 ± 7.9) was 187.2 ± 16.1 s, the “time … significance vs. controls (S)” value ([1]; group 5, rectally) was “h.s” and the “time … (E, mean ± standard error)” value ([1]; group 5, rectally, before treatment 117.5 ± 6.39) was 178.5 ± 11.9 s. For the same molecule, the Color [2, 5] was “white”, the Smell [2, 5] was “almost absent” and the “Weight Fin.” value [2, 5] was 95.4 mg. For the same molecule, the “Weight Variations” value [2, 5] was -5.26%, the Color ([2]; sample 2, dry, 3 hours) was “white” and the “Weight Fin.” value ([2]; sample 2, dry, 3 hours) was 94.5 mg. The “Weight Variations” value ([2]; sample 2, dry, 3 hours) was -5.03%, the Color [2, 6] was “white” and the Smell [2, 6] was “almost absent”. For the same molecule, the “Weight Fin.” value [2, 6] was 95.1 mg, the “Weight Variations” value [2, 6] was -5.37% and the Color ([2]; sample 4, dry, 8 hours) was “white”. The Smell ([2]; sample 4, dry, 8 hours) was “almost absent”, the “Weight Fin.” value ([2]; sample 4, dry, 8 hours) was 94.9 mg and the “Weight Variations” value ([2]; sample 4, dry, 8 hours) was -5.74%. For the same molecule, the Smell ([2]; sample 5, dry, 8 hours) was “almost absent”, the “Weight Fin.” value ([2]; sample 5, dry, 8 hours) was 194.1 mg and the “Weight Variations” value ([2]; sample 5, dry, 8 hours) was -3.67%. For the same molecule, the Smell ([2]; sample 6, wet) was “almost absent”, the Smell ([2]; sample 7, wet) was “almost absent” and the Smell ([2]; sample 8, wet) was “almost absent”. The Smell ([2]; sample 9, wet) was “almost absent”, the “Weight Fin.” value [2, 7] was 201.3 mg and the “Weight Variations” value [2, 7] was -2.94%. The melting point variation ([3]; after heating) was “no variations”, the “Final m.p. wet conditions (Sample 10)” value ([3]; after heating 8 hours wet and evaporation to dryness) was 166-167 °C and the “Final m.p. dry conditions (Sample 5)” value ([3]; after heating for 8 hours, dry) was 166-167 °C. For the same molecule, the Initial m.p. ([3]; before heating) was 166-167 °C, the “serum concentrations of SGPT” value (bromobenzene poisoning; oral, 200 and 300 mg/kg, bromobenzene-poisoned rat) was “significant reduction of the serum concentrations of SGPT” and the “liver impairment induced by bromobenzene” value (bromobenzene poisoning; oral, 200 and 300 mg/kg, rat) was “able to reduce the liver impairment”. The “sleeping time (Nembutal)” value (bromobenzene poisoning; oral, 200 and 300 mg/kg, Nembutal 25 mg/kg ip) was “statistically significant decrease of the sleeping time”, the “rate of excretion of bromophthalein” value (bromobenzene poisoning; vs poisoned controls, bromophthalein 50 mg iv, 30 minutes) was “less evident” and the “mean viscosimetric value of the mucus after treatment” value [4] was 155.4±61.3 g/Hg. The deaths (mercuric chloride; 200 mg/kg ip) was 10%, the deaths (mercuric chloride; 300 mg/kg ip) was 10% and the Content (physchem) was 100.0%. The “E at 292 nm” value (physchem; as such) was 0.438, the remaining at 1.5 h (physchem; dry) was 99.8% and the remaining at 3 h (physchem; dry) was 99.8%. The remaining at 5.25 h (physchem; dry) was 100%, the remaining at 8 h (physchem; dry) was 99.8% and the “E at 292 nm” value (physchem; sample 1, dry) was 0.440. The “E at 292 nm” value (physchem; sample 2, dry) was 0.435, the “E at 292 nm” value (physchem; sample 3, dry) was 0.440 and the “E at 292 nm” value (physchem; sample 4, dry) was 0.440. For the same molecule, the “E at 292 nm” value (physchem; sample 6, wet) was 0.455, the “E at 292 nm” value (physchem; sample 7, wet) was 0.450 and the “E at 292 nm” value (physchem; sample 8, wet) was 0.435. For the same molecule, the “E at 292 nm” value (physchem; sample 9, wet) was 0.412.
